Structures can show the parent of a compound that is named as a salt.
Target: T1, G9a (Homo sapiens, UniProt Q96KQ7)
T1 sequence (Q96KQ7 1-1210): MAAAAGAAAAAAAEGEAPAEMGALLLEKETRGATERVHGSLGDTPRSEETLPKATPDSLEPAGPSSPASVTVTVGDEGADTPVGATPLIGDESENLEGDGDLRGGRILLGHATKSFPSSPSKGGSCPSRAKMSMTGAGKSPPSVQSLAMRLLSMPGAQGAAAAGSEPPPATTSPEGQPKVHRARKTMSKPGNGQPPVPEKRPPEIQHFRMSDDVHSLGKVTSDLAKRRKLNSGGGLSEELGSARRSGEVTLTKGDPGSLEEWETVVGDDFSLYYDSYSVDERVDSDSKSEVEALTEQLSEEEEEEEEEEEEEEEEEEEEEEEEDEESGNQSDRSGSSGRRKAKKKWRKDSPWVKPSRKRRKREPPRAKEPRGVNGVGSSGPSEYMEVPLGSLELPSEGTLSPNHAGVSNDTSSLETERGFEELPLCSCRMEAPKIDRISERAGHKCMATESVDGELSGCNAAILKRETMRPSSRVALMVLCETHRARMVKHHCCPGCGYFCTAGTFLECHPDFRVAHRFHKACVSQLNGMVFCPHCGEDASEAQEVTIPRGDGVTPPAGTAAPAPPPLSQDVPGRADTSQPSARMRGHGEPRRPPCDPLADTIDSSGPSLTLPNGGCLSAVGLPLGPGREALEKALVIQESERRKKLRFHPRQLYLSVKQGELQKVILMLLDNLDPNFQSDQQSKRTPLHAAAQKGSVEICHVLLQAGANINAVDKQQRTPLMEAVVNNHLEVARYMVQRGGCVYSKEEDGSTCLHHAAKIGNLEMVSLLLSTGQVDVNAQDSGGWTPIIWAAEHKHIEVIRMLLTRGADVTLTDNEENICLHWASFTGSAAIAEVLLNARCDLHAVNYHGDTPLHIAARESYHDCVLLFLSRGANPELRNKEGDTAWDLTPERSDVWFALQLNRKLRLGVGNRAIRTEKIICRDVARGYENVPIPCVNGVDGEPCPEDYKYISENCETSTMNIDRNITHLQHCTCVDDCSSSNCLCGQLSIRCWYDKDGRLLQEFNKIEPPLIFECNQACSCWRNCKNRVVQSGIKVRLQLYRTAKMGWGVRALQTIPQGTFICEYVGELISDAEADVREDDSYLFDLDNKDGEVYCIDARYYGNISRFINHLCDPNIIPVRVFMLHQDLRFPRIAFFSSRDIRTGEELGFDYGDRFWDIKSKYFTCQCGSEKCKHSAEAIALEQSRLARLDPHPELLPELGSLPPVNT
Assay: G9a AlphaLISA enzymatic activity assay
Assay type: biochemical
Conditions: 0.15 nM G9a, 15 uM S-adenosyl-methionine, 100 nM biotinylated histone 3 peptide (1-21), 1 hour at room temperature; read-out: G9a in (uM) (IC50, concentration that produced 50% inhibition)
Description: The G9a AlphaLISA assay was used to detect the methyl modifications of a biotinylated histone H3 peptide by the compounds. These modifications are done by the histone methyl transferase activity of the G9a enzyme. The assay consists of reading a chemiluminescent signal at 615 nm; this signal is generated by a laser excitation at 680 nm that transfers a reactive singlet oxygen between the donor beads and acceptor beads. Donor beads are streptavidin conjugated and bind to the biotin on the peptide. Acceptor beads are conjugated with an antibody that recognizes the specific G9a methyl mark on the peptide. If there is a methyl mark on the peptide, the acceptor beads will bind to the peptide. Upon binding, the acceptor beads will be in close proximity (<200 nm) of the donor beads and when the donor beads are excited, the transfer of the oxygen can occur and a strong signal will be generated. If there is no methyl mark, the interaction between beads will not occur and signal will be at background levels.
For the assay, the following buffer was used to set up reactions: 50 mM Tris-HCl pH9, 50 mM NaCl, 0.01% Tween-20 and 1 mM DTT (added fresh prior to starting the reactions). The assay is set up by adding a final concentration of 0.15 nM G9a, 15 uM S-adenosyl-methionine and, 100 nM biotinylated histone 3 peptide (1-21). The reaction is incubated at room temperature for 1 hour, and subsequently quenched by the addition of the acceptor beads (anti-H3k9me2 AlphaLISA acceptor beads, PerkinElmer # AL117) at a final concentration of 20 ug/mL. The acceptor beads are incubated for 1 hour. After 1 hour, the donor beads are added at a final concentration of 20 ug/mL (Alpha Streptavidin donor beads, PerkinElmer #6760002). Donor beads are incubated for 0.5 hours. Both donor and acceptor beads are resuspended in AlphaLISA 5X Epigenetics Buffer 1 Kit (PerkinElmer # AL008) prior to addition to the reaction. All manipulations and incubations with the donor and acceptor beads are done in subdued light. Signal is detected in an EnVision plate reader in Alpha mode (see ACS Med Chem Lett. 2014 Jan. 2; 5(2):205-9. doi: 10.1021/m1400496h. eCollection 2014. Discovery and development of potent and selective inhibitors of histone methyltransferase g9a.)
Percent inhibition was calculated for each compound dilution and the concentration that produced 50% inhibition was calculated. This value is presented as the IC50.

| Structure (SMILES) | IC50 [µM] |
| --- | --- |
| COc1cc2c3c(cnc2cc1OCCCN1CCCC1)CC(C)(C)N3 [Example 35, 1-[3-({8-methoxy-2,2-dimethyl-1H,2H,3H-pyrrolo[3,2-c]quinolin-7-yl}oxy)propyl]pyrrolidine formate] | 0.012 |
| COc1cc2c3c(c(NC4CC4)nc2cc1OCCCN1CCCC1)COCC3 [Example 55, N-cyclopropyl-9-methoxy-8-[3-(pyrrolidin-1-yl)propoxy]-1H,2H,4H-pyrano[3,4-c]-quinolin-5-amine formate] | 0.32 |
| COc1cc2c3c(c(NC(C)C)nc2cc1OCC1CCN(C)C1)CCCC3 (stereo not drawn) [Example 51, 2-methoxy-3-[(1-methylpyrrolidin-3-yl)methoxy]-N-(propan-2-yl)-7,8,9,10-tetrahydrophenanthridin-6-amine formate] | 0.88 |
| CNc1nc2cc(OCCCN3CCCC3)c(OC)cc2c2c1COC2 [Example 59, 8-methoxy-N-methyl-7-[3-(pyrrolidin-1-yl)propoxy]-1H,3H-furo[3,4-c]quinolin-4-amine formate] | 0.23 |
| COc1cc2c3c(c(N(C)C4CCCC4)nc2cc1OCCCN1CCCC1)CCC3 [Example 73, N-cyclopentyl-8-methoxy-N-methyl-7-[3-(pyrrolidin-1-yl)propoxy]-1H,2H,3H-cyclopenta[c]quinolin-4-amine trifluoroacetate] | 1.9 |
| COc1cc2c3c(c(NC(C)C)nc2cc1OCCCN1CCCC1)CCC3 [Example 3, 8-methoxy-N-(propan-2-yl)-7-[3-(pyrrolidin-1-yl)propoxy]-1H,2H,3H-cyclopenta-[c]quinolin-4-amine trifluoroacetate] | 0.015 |
| COc1cc2c3c(c(NCCc4ccccc4)nc2cc1OCCCN1CCCC1)CCC3 [Example 5, 8-methoxy-N-(2-phenylethyl)-7-[3-(pyrrolidin-1-yl)propoxy]-1H,2H,3H-cyclopenta[c]quinolin-4-amine trifluoroacetate] | 0.15 |
| COc1cc2c3c(c(C)nc2cc1OCCCN1CCCC1)CCC(C)N3 (stereo not drawn) [Example 31, 1-[3-({9-methoxy-2,5-dimethyl-1H,2H,3H,4H-benzo[h]1,6-naphthyridin-8-yl}oxy)propyl]pyrrolidine trifluoroacetate] | 0.009 |
| COc1cc2c3c(c(NC(C)C)nc2cc1OCCCN1CCCC1)CN(C)CC3 [Example 71, 9-methoxy-3-methyl-N-(propan-2-yl)-8-[3-(pyrrolidin-1-yl)propoxy]-1H,2H,3H,4H-benzo[c]2,7-naphthyridin-5-amine formate] | 1.1 |
| CNc1nc2cc(OCCCN3CCCC3)c(OC)cc2c2c1CCCCN2 [Example 33, 10-methoxy-N-methyl-9-[3-(pyrrolidin-1-yl)propoxy]-1H,2H,3H,4H,5H-azepino[3,2-c]quinolin-6-amine formate] | 0.012 |
| COc1cc2c3c(c(NC(C)C)nc2cc1OCCCN1CCCC1)CC(C)(C)C3 [Example 54, 8-methoxy-2,2-dimethyl-N-(propan-2-yl)-7-[3-(pyrrolidin-1-yl)propoxy]-1H,2H,3H-cyclopenta[c]quinolin-4-amine formate] | 0.048 |
| COc1cc2c3c(c(N[C@@H]4CCOC4)nc2cc1OCCCN1CCCC1)CCC3 [Example 17, 8-methoxy-N-[(3R)-oxolan-3-yl]-7-[3-(pyrrolidin-1-yl)propoxy]-1H,2H,3H-cyclopenta[c]quinolin-4-amine formate] | 0.21 |
| COc1cc2c3c(c(NCC(F)(F)F)nc2cc1OCCCN1CCCC1)CCC3 [Example 65, 8-methoxy-7-[3-(pyrrolidin-1-yl)propoxy]-N-(2,2,2-trifluoroethyl)-1H,2H,3H-cyclopenta[c]quinolin-4-amine formate] | 0.74 |
| COc1cc2c3c(c(NCC4CCC4)nc2cc1OCCCN1CCCC1)CCC3 [Example 49, N-(cyclobutylmethyl)-8-methoxy-7-[3-(pyrrolidin-1-yl)propoxy]-1H,2H,3H-cyclopenta[c]quinolin-4-amine formate] | 0.046 |

Further lines, results first:

| IC50 [µM] | Structure (SMILES) |
| --- | --- |
| 0.006 | COc1cc2c3c(c(C4CCCC4)nc2cc1OCCCN1CCCC1)CC(C)(C)N3 [Example 113, 1-[3-({4-cyclopentyl-8-methoxy-2,2-dimethyl-1H,2H,3H-pyrrolo[3,2-c]quinolin-7-yl}oxy)propyl]pyrrolidine hydrochloride] |
| 0.047 | CC[C@@H](C)Nc1nc2cc(OCCCN3CCCC3)c(OC)cc2c2c1CCC2 [Example 100, N-[(2R)-butan-2-yl]-8-methoxy-7-[3-(pyrrolidin-1-yl)propoxy]-1H,2H,3H-cyclopenta[c]quinolin-4-amine formate] |
| 0.11 | COc1cc2c3c(c(NCCC#N)nc2cc1OCCCN1CCCC1)CCC3 [Example 119, 3-({8-methoxy-7-[3-(pyrrolidin-1-yl)propoxy]-1H,2H,3H-cyclopenta[c]quinolin-4-yl}amino)propanenitrile formate] |
| 0.66 | COc1cc2c3c(c(NC(C)C)nc2cc1OCCCN1CCCCC1)CCC3 [Example 85, 8-methoxy-7-[3-(piperidin-1-yl)propoxy]-N-(propan-2-yl)-1H,2H,3H-cyclopenta[c]quinolin-4-amine formate] |
| 0.013 | COc1cc2c3c(c(C4CC4)nc2cc1OCCCN1CCCC1)CCC(C)(C)N3 [Example 76, 1-[3-({5-cyclopropyl-9-methoxy-2,2-dimethyl-1H,2H,3H,4H-benzo[h]1,6-naphthyridin-8-yl}oxy)propyl]pyrrolidine formate] |
| 0.013 | Cl.Cl.[2H]C(C)(C)Nc1nc2cc(OCCCN3CCCC3)c(OC)cc2c2c1CCC2 [Example 102, 8-methoxy-N-[(2-^2H)propan-2-yl]-7-[3-(pyrrolidin-1-yl)propoxy]-1H,2H,3H-cyclopenta[c]quinolin-4-amine hydrochloride] |
| 0.014 | COc1cc2c3c(cnc2cc1OCCCN1CCCC1)CCC(C)(C)N3 [Example 75, 1-[3-({9-methoxy-2,2-dimethyl-1H,2H,3H,4H-benzo[h]1,6-naphthyridin-8-yl}oxy)propyl]pyrrolidine formate] |
| 0.07 | COc1cc2c3c(c(NCC(C)C)nc2cc1OCCCN1CCCC1)CC(C)(C)C3 [Example 95, N-isobutyl-8-methoxy-2,2-dimethyl-7-(3-(pyrrolidin-1-yl)propoxy)-2,3-dihydro-1H-cyclopenta[c]quinolin-4-amine formate] |
| 0.1 | COc1cc2c3c(c(NCC4CCC4)nc2cc1OCCCN1CCCC1)CC(C)(C)C3 [Example 96, N-(cyclobutylmethyl)-8-methoxy-2,2-dimethyl-7-(3-(pyrrolidin-1-yl)propoxy)-2,3-dihydro-1H-cyclopenta[c]quinolin-4-amine formate] |
| 0.027 | COc1cc2c3c(c(NCC(C)C)nc2cc1OCCCN1CCCC1)CCC3 [Example 103, 8-methoxy-N-(2-methylpropyl)-7-[3-(pyrrolidin-1-yl)propoxy]-1H,2H,3H-cyclopenta[c]quinolin-4-amine trifluoroacetate] |

Reference: patent US10829452B2, “Histone methyltransferase inhibitors” (GLOBAL BLOOD THERAPEUTICS, INC., priority 2016, dated 2020)
